Tests used:
primary human T cells [1] = assay: EPO mRNA LNP delivery to primary human T cells, Quantikine IVD Human Epo ELISA; type: cell-based
Procedure: Reagents were acquired from Quantikine, Minneapolis, MN. The assay was performed as directed on the Quantikine® IVD® ELISA Human Erythropoietin Immunoassay protocol in the package insert. Briefly; primary human T cells were isolated from fresh whole blood using a negative selection protocol and activated using a triple activator. Seven days post-activation, T cells were dosed with mRNA LNPs encoding EPO at […] mRNA per 500,000 cells and N/P 10. After 48 h of exposure, the T cells were harvested and lysed for cytosolic EPO and media supernatant was sampled for secreted EPO. Quantikine® Human Serum Controls were used.

C57BL/6 mice = assay: In vivo delivery of OVA-encoded mRNA LNP via intramuscular administration, anti-OVA-IgG ELISA of serum; settings: 5 μg OVA mRNA i.m. on Day 1 and 10, serum 2 weeks post second immunization, versus 50 ug OVA protein, FIG. 10
Procedure: A lipid mixture of LM02b composition in ethanol was mixed with a low pH buffered solution of Ova mRNA at an N/P ratio of 8 using a NanoAssemblr® Ignite™ microfluidic mixer. The LNP were downstream processed using the Amicon™ ultra filtration technique and characterized for size, PDI and encapsulation efficiency. Size and PDI were measured using dynamic light scattering techniques, and nucleic acid encapsulation efficiency was calculated from a modified Quant-iT RiboGreen™ RNA assay. The hydrodynamic diameter of these mRNA-LNPs was ˜76 nm with a polydispersity index of 0.01 to 0.12 and an encapsulation efficiency of ˜95%
All animals were handled according to the Institutional Animal Care and Use Committee ethics protocols. For experiments, 6-8 week old C57BL/6 mice (n=4) were purchased from Envigo. […] Aliquots of serum samples were thawed and analyzed at appropriate dilutions for Ova expression and for IgG measurements using standard ELISA techniques.
Anti-OVA-IgG ELISA of serum samples: Sera from the immunized mice were collected at 2 weeks post second immunization. OVA—specific production of IgG in response to OVA-encoded mRNA in various LNPs were measured by ELISA as described supra. […] After 30 minutes of incubation, a stop solution of 2 N sulphuric acid was added and a plate reader was used to determine absorbance at 450 nm. […]

primary human T cells [2] = assay: CD19 CAR mRNA LNP expression in isolated primary human T cells; type: cell-based; settings: CT10, N/P 8, transfected T cells in vitro, FIG. 9
Procedure: FIG. 9 are two illustrations of CD19 CAR expression levels in isolated primary human T cells mediated by mRNA CT10 N/P 8 LNPs containing PNI 545, PNI 516, PNI132, PNI 542, PNI 565 incorporating CD19 CAR (chimeric antigen receptor) mRNA. Geometric mean fluorescence intensity of anti-CD19-PE fluorophore (top bar graph) and CD19 CAR positive T cell population (bottom histogram) were measured by flow cytometry 24 hours following LNP addition with 500 ng of encapsulated mRNA per 125,000 T cells 3 days after triple activation;
CD19 CAR expression in isolated primary human T cells mediated by mRNA-LNPs containing IL with CT10 composition at N/P 8 was assayed after in vitro exposure. The CAR vector pcDNA3.1 anti-CD19-h(BB Lambda)-EGFP-2nd-CAR (T7 Mut) 7661 bp was purchased from Creative BioLabs, NY, USA.
T cells were isolated from whole blood using a negative isolation procedure and T cell activation, and expansion was carried out by triple activation in ImmunoCult™ Human T Cell Expansion Media as described supra.

[3] = primary human T cells, 48 hours

CC/C=C\CC1C(CC(=O)OCC(COCCCCCCCC/C=C\C/C=C\CCCCC)OCCCCCCCC/C=C\C/C=C\CCCCC)CCC1OC(=O)CCCN(C)C (centres unmarked) [PNI 101]
cytosolic EPO (primary human T cells [1]; T cell lysate, 48 h exposure, N/P 10, FIG. 5): no cytosolic EPO | secreted EPO (primary human T cells [1]; media supernatant, 48 h exposure, N/P 10, FIG. 5): about 1016 mlU/mL | EPO expression mediated by LNPs versus MC3 (primary human T cells [1]; [3]): higher than those containing MC3 | Fold increase in EPO concentration relative to MC3 (primary human T cells [1]; [3]): 1.87 | EPO concentration (mIU/mL), 48 hours (primary human T cells [1]; primary human T cells, 48 hours, EPO mRNA LNP, N/P 10): 1016.0 mIU/mL

CC/C=C\CC1C(CC(=O)OCC(COCCCCCCCC/C=C\C/C=C\CCCCC)OCCCCCCCC/C=C\C/C=C\CCCCC)CCC1OC(=O)C1(C)CCN(C)CC1 (centres unmarked) [PNI 123]
OVA-specific IgG response (C57BL/6 mice): the same or higher IgG response as that of a 10 fold higher dose of OVA protein

CC/C=C\CC1C(CC(=O)OCC(COCCCCCCCC/C=C\C/C=C\CCCCC)OCCCCCCCC/C=C\C/C=C\CCCCC)CCC1OC(=O)C1CCN(C)CC1 (centres unmarked) [PNI 132]
OVA-specific IgG response (C57BL/6 mice): the same or higher IgG response as that of a 10 fold higher dose of OVA protein

CC/C=C\CC1C(CC(=O)OCCC(CCCCCCCC)OC(=O)C(CCCCCC)CCCCCCCC)CCC1OC(=O)C1(C)CCN(C)CC1 (centres unmarked) [PNI 565]
CD19 CAR expression (primary human T cells [2]): greater than MC3 LNP

Source: patent US12503432B2, “Ionizable lipids for nucleic acid delivery” (Global Life Sciences Solutions Canada ULC, priority 2019, dated 2025)
